Experimental data as given in patent US20190343932A1, “NOVEL TREATMENTS” (ENZYMATICA AB, priority 2014, published 2019).
Where a SMILES comes first, the peptide text is derived from it. The star is where a group is joined. pNA = O=[N+]([O-])c1ccc(N*)cc1; Cbz = O=C(OCc1ccccc1)*

How the values were obtained:
Assay in all cases: Activity assay to determine kinetic constants
Type in all cases: biochemical
[1] = target: Atlantic cod (Gadus morhua) trypsin I (SEQ ID NO: 1) variant EZA-003, K133T (Gadus morhua, UniProt P16049, K152T)
Sequence of Atlantic cod (Gadus morhua) trypsin I (SEQ ID NO: 1) variant EZA-003, K133T (P16049 20-241 K152T): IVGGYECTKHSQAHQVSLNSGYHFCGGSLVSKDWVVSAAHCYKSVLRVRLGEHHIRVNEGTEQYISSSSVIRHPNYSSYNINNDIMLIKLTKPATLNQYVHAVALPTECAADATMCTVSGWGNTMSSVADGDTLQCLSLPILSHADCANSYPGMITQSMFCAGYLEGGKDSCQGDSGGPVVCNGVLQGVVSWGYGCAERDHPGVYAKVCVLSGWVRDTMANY
Source text: (§1) The following polypeptides were obtained or produced: • (a) Wldtype trypsin I purified from Atlantic cod (“WT-Tryp” or “wildtype”); • (b) Recombinantly expressed wildtype trypsin I of Atlantic cod (SEQ ID NO:1, “R-Tryp”); and • (c) Thirty-eight different mutated versions of trypsin I of Atlantic cod (i.e. mutated sequences of SEQ ID NO:1).
(§2) Polypeptides corresponding to the wildtype amino acid sequence of trypsin I from Atlantic cod and thirty-eight mutated versions thereof were produced using the methods described in Example C.
(§3) Activation of recombinant enzymes (approximately 0.01 mg/ml) was achieved by adding wild type trypsin (0.2 U/ml) at room temperature and incubate for 24 hours. The mixture was made in 20 mM Tris-HCl, 1 mM CaCl2, 50% glycerol, pH 8.0 to a final volume of 200 μl.
(§4) The substrate (Gly-Pro-Arg) was used at concentrations 0.005-0.15 mM in assay buffer containing 1% DMSO. 245 μL of substrate solutions were pipetted into a 96-well plate. The reaction was started by adding 5 μL of the sample mixture (above) and monitored at 410 nm in a SpectraMax plate reader. Kinetic measurement was performed every minute of a continuous 15-min run.

[2] = target: Atlantic cod (Gadus morhua) trypsin I (SEQ ID NO: 1) variant EZA-007, N80T (Gadus morhua, UniProt P16049, N99T)
Sequence of Atlantic cod (Gadus morhua) trypsin I (SEQ ID NO: 1) variant EZA-007, N80T (P16049 20-241 N99T): as the sequence (P16049 20-241 K152T) above, with N80T, T133K counted along it
Source text: as §1, §2, §3, §4

[3] = target: Atlantic cod (Gadus morhua) trypsin I (SEQ ID NO: 1) variant EZA-005, K133V (Gadus morhua, UniProt P16049, K152V)
Sequence of Atlantic cod (Gadus morhua) trypsin I (SEQ ID NO: 1) variant EZA-005, K133V (P16049 20-241 K152V): as the sequence (P16049 20-241 K152T) above, with T133V counted along it
Source text: as §1, §2, §3, §4

[4] = target: Atlantic cod (Gadus morhua) trypsin I (SEQ ID NO: 1) variant EZA-004, K133L (Gadus morhua, UniProt P16049, K152L)
Sequence of Atlantic cod (Gadus morhua) trypsin I (SEQ ID NO: 1) variant EZA-004, K133L (P16049 20-241 K152L): as the sequence (P16049 20-241 K152T) above, with T133L counted along it
Source text: as §1, §2, §3, §4

[5] = target: Atlantic cod (Gadus morhua) trypsin I (SEQ ID NO: 1) variant EZA-008, I81L (Gadus morhua, UniProt P16049, I100L)
Sequence of Atlantic cod (Gadus morhua) trypsin I (SEQ ID NO: 1) variant EZA-008, I81L (P16049 20-241 I100L): as the sequence (P16049 20-241 K152T) above, with I81L, T133K counted along it
Source text: as §1, §2, §3, §4

[6] = target: T1, Atlantic cod (Gadus morhua) trypsin I, wildtype, purified from Atlantic cod (WT-Trp), SEQ ID NO: 1 (Gadus morhua, UniProt P16049); conditions: reference
T1 sequence (P16049 20-241): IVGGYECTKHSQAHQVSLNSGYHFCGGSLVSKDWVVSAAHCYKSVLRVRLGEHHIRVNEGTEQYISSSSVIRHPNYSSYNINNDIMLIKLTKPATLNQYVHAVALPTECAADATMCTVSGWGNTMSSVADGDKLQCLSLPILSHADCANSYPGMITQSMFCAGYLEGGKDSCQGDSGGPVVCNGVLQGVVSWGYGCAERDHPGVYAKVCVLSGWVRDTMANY
Source text: as §1, §2, §3, §4

[7] = target: Atlantic cod (Gadus morhua) trypsin I (SEQ ID NO: 1) variant EZA-006, K133E (Gadus morhua, UniProt P16049, K152E)
Sequence of Atlantic cod (Gadus morhua) trypsin I (SEQ ID NO: 1) variant EZA-006, K133E (P16049 20-241 K152E): as the sequence (P16049 20-241 K152T) above, with T133E counted along it
Source text: as §1, §2, §3, §4

[8] = target: Atlantic cod (Gadus morhua) trypsin I (SEQ ID NO: 1) variant EZA-002, D217S, T218N, S69K (Gadus morhua, UniProt P16049, D236S/S88K/T237N)
Sequence of Atlantic cod (Gadus morhua) trypsin I (SEQ ID NO: 1) variant EZA-002, D217S, T218N, S69K (P16049 20-241 S88K/D236S/T237N): as the sequence (P16049 20-241 K152T) above, with S69K, T133K, D217S, T218N counted along it
Source text: as §1, §2, §3, §4

[9] = target: Atlantic cod (Gadus morhua) trypsin I (SEQ ID NO: 1) variant EZA-009, L165G, P202Y (Gadus morhua, UniProt P16049, L184G/P221Y)
Sequence of Atlantic cod (Gadus morhua) trypsin I (SEQ ID NO: 1) variant EZA-009, L165G, P202Y (P16049 20-241 L184G/P221Y): as the sequence (P16049 20-241 K152T) above, with T133K, L165G, P202Y counted along it
Source text: as §1, §2, §3, §4

[10] = target: T2, Atlantic cod (Gadus morhua) trypsin I, recombinant wildtype EZA-001 (no mutations), SEQ ID NO: 1 (Gadus morhua, UniProt P16049)
T2 construct: mature trypsin from MEEDK-zymogen
T2 sequence (P16049 20-241): T1 sequence (P16049 20-241)
Source text: as §1, §2, §3, §4

Question: With `N=C(N)NCCC[C@H](NC(=O)[C@@H]1CCCN1C(=O)CNC(=O)OCc1ccccc1)C(=O)Nc1ccc([N+](=O)[O-])cc1` [Gly-Pro-Arg, Cbz-Gly-Pro-Arg-p-nitroanilide] (Cbz-Gly-Pro-Arg-pNA) as the compound, how does the “Vmax, relative to WT-Trp” value [1] read?
Answer: Its value is 96.

Question: What about the “Vmax, relative to WT-Trp” value [2] of the same compound?
Answer: The value was 99.

Question: What about the “Vmax, relative to WT-Trp” value [3] of the same compound?
Answer: Its value is 96.

Question: And the “Vmax, relative to WT-Trp” value [4]?
Answer: Its value is 82.

Question: What about the “Vmax, relative to WT-Trp” value [5] of the same compound?
Answer: Its value is 95.

Question: And the “Vmax (Kcat), relative to WT-Trp” value [6]?
Answer: Its value is 100.

Question: And the “Vmax, relative to WT-Trp” value [7]?
Answer: Its value is 98.

Question: And the “Vmax, relative to WT-Trp” value [8]?
Answer: The value was 99.

Question: What about the “Vmax, relative to WT-Trp” value [9] of the same compound?
Answer: Its value is 98.

Question: What about the “Vmax, relative to WT-Trp” value [10] of the same compound?
Answer: Its value is 99.
